Source: PubChem BioAssay AID328 (DTP/NCI, 2004)
Where “and” joins values, the source holds several entries; their conditions need not be identical. Identical values can stand only once. Toxic doses and inconclusive results are not listed. Residues, ends and D or L forms follow the SMILES beside them.

Tested on: BDF1 mice, P388 leukemia ip, median survival T/C
Assay: NCI In Vivo Anticancer Drug Screen. Data for tumor model P388 Leukemia (intraperitoneal) in B6D2F1 (BDF1) mice
Settings: endpoint: median survival time, higher = longer survival
Method in brief: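 Read-out is survival of treated animals expressed relative to the vehicle group, as a T/C ratio.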

[1] = dose: 25.0 mg/kg/injection, schedule: Q01DX009 (ip), vehicle: Klucel (hydroxypropylcellulose) (HPC)
[2] = dose: 50.0 mg/kg/injection, schedule: Q01DX009 (ip), vehicle: Klucel (hydroxypropylcellulose) (HPC)
[3] = dose: 100.0 mg/kg/injection, schedule: Q04DX003 (ip), vehicle: Klucel (hydroxypropylcellulose) (HPC)
[4] = dose: 200.0 mg/kg/injection, schedule: Q01DX009 (ip), vehicle: Klucel (hydroxypropylcellulose) (HPC)
[5] = dose: 200.0 mg/kg/injection, schedule: Q04DX003 (ip), vehicle: Klucel (hydroxypropylcellulose) (HPC)
[6] = dose: 400.0 mg/kg/injection, schedule: Q01DX009 (ip), vehicle: Klucel (hydroxypropylcellulose) (HPC)
[7] = dose: 400.0 mg/kg/injection, schedule: Q04DX003 (ip), vehicle: Klucel (hydroxypropylcellulose) (HPC)
[8] = dose: 100.0 mg/kg/injection, schedule: Q04DX003 (ip), vehicle: saline with Tween-80
[9] = dose: 200.0 mg/kg/injection, schedule: Q04DX003 (ip), vehicle: saline with Tween-80
[10] = dose: 12.5 mg/kg/injection, schedule: Q01DX009 (ip), vehicle: saline with Tween-80
[11] = dose: 25.0 mg/kg/injection, schedule: Q01DX009 (ip), vehicle: saline with Tween-80
[12] = dose: 50.0 mg/kg/injection, schedule: Q01DX009 (ip), vehicle: saline with Tween-80
[13] = dose: 50.0 mg/kg/injection, schedule: Q01DX009 (ip), vehicle: saline
[14] = dose: 100.0 mg/kg/injection, schedule: Q01DX009 (ip), vehicle: saline
[15] = dose: 10.0 mg/kg/injection, schedule: Q04DX003 (ip), vehicle: saline with Tween-80

CSc1cccc(NC(=O)OCCOc2ccc(-c3ccccc3)cc2)c1
T/C (dose: 12.5 mg/kg/injection, schedule: Q01DX009 (ip), vehicle: Klucel (hydroxypropylcellulose) (HPC)): 109 % of control | T/C [1]: 105 % of control | T/C [2]: 111 % of control

CC(C)(C)C1COP(=O)(c2ccccc2)N(c2ccccc2)C1 (stereo not drawn)
T/C (dose: 50.0 mg/kg/injection, schedule: Q01DX005 (ip), vehicle: saline with Tween-80): 92 % of control | T/C (dose: 100.0 mg/kg/injection, schedule: Q01DX005 (ip), vehicle: saline with Tween-80): 91 % of control

CCCCCCCCCCC[N+](C)(C)CC(O)C[N+](C)(C)CCCCCCCCCCC
T/C (dose: 3.13 mg/kg/injection, schedule: Q01DX009 (ip), vehicle: saline): 102 % of control | T/C (dose: 6.25 mg/kg/injection, schedule: Q01DX009 (ip), vehicle: saline): 111 % of control | T/C (dose: 12.5 mg/kg/injection, schedule: Q01DX009 (ip), vehicle: saline): 118 % of control

CSc1ssc(=Nc2ccc(C)cc2)c1-c1ccccc1
T/C [3]: 105 % of control | T/C [4]: 90 % of control | T/C [5]: 100 % of control | T/C [6]: 95 % of control | T/C [7]: 95 % of control

CN(c1ccccc1)c1ccc([N+](=O)[O-])c2no[n+]([O-])c12
T/C (dose: 15.0 mg/kg/injection, schedule: Q01DX009 (ip), vehicle: saline with Tween-80): 106 % of control | T/C (dose: 30.0 mg/kg/injection, schedule: Q01DX009 (ip), vehicle: saline with Tween-80): 118 % of control

O=S(=O)(Nc1ccc(O)cc1)c1ccccc1
T/C [8]: 100 % of control | T/C [9]: 95 % of control | T/C (dose: 400.0 mg/kg/injection, schedule: Q04DX003 (ip), vehicle: saline with Tween-80): 104 % of control

Cc1cc(NS(=O)(=O)c2ccccc2)ccc1NS(=O)(=O)c1ccccc1
T/C (dose: 75.0 mg/kg/injection, schedule: Q01DX009 (ip), vehicle: Klucel (hydroxypropylcellulose) (HPC)): 87 % of control | T/C [3]: 104 % of control | T/C (dose: 150.0 mg/kg/injection, schedule: Q01DX009 (ip), vehicle: Klucel (hydroxypropylcellulose) (HPC)): 100 % of control | T/C [5]: 100 % of control | T/C (dose: 300.0 mg/kg/injection, schedule: Q01DX009 (ip), vehicle: Klucel (hydroxypropylcellulose) (HPC)): 87 % of control | T/C [7]: 95 % of control

OC(CC1CCCCN1)c1ccccc1 (stereo not drawn)
T/C [10]: 99 % of control | T/C [11]: 99 % of control | T/C [12]: 94 % of control and 110 % of control

CC1(C#N)CCc2c(ccc3ccccc23)C1=O (stereo not drawn)
T/C (dose: 50.0 mg/kg/injection, schedule: Q04DX003 (ip), vehicle: other): 91 % of control | T/C (dose: 100.0 mg/kg/injection, schedule: Q04DX003 (ip), vehicle: other): 95 % of control | T/C (dose: 200.0 mg/kg/injection, schedule: Q04DX003 (ip), vehicle: other): 100 % of control

[Cl][Pt+2][Cl].[NH-]C1CCCC1.[NH-]C1CCCC1
T/C (dose: 10.0 mg/kg/injection, schedule: Q01DX009 (ip), vehicle: Klucel (hydroxypropylcellulose) (HPC)): 96 % of control | T/C (dose: 20.0 mg/kg/injection, schedule: Q01DX009 (ip), vehicle: Klucel (hydroxypropylcellulose) (HPC)): 107 % of control | T/C (dose: 40.0 mg/kg/injection, schedule: Q01DX009 (ip), vehicle: Klucel (hydroxypropylcellulose) (HPC)): 112 % of control | T/C (dose: 80.0 mg/kg/injection, schedule: Q01DX009 (ip), vehicle: Klucel (hydroxypropylcellulose) (HPC)): 117 % of control

Clc1ccc(-c2n[se]c(-c3ccc(Cl)cc3)n2)cc1
T/C (dose: 0.19 mg/kg/injection, schedule: Q01DX009 (ip), vehicle: saline with Tween-80): 98 % of control | T/C (dose: 0.39 mg/kg/injection, schedule: Q01DX009 (ip), vehicle: saline with Tween-80): 101 % of control | T/C (dose: 0.78 mg/kg/injection, schedule: Q01DX009 (ip), vehicle: saline with Tween-80): 95 % of control | T/C (dose: 1.56 mg/kg/injection, schedule: Q01DX009 (ip), vehicle: saline with Tween-80): 96 % of control

CC(C)(S)C(N)C(=O)O (stereo not drawn)
T/C [13]: 86 % of control | T/C [14]: 90 % of control | T/C (dose: 100.0 mg/kg/injection, schedule: Q04DX003 (ip), vehicle: saline): 91 % of control | T/C (dose: 200.0 mg/kg/injection, schedule: Q01DX009 (ip), vehicle: saline): 90 % of control | T/C (dose: 200.0 mg/kg/injection, schedule: Q04DX003 (ip), vehicle: saline): 91 % of control | T/C (dose: 400.0 mg/kg/injection, schedule: Q04DX003 (ip), vehicle: saline): 100 % of control

Cc1ccccc1P(=O)(c1ccccc1C)c1ccccc1C
T/C [11]: 90 % of control | T/C [12]: 94 % of control | T/C (dose: 100.0 mg/kg/injection, schedule: Q01DX009 (ip), vehicle: saline with Tween-80): 94 % of control

O=C(NNC1CCN(Cc2ccccc2)CC1)c1ccccc1
T/C (dose: 1.1 mg/kg/injection, schedule: Q04DX003 (ip), vehicle: saline with Tween-80): 100 % of control | T/C (dose: 1.65 mg/kg/injection, schedule: Q04DX003 (ip), vehicle: saline with Tween-80): 100 % of control | T/C (dose: 2.5 mg/kg/injection, schedule: Q04DX003 (ip), vehicle: saline with Tween-80): 100 % of control | T/C (dose: 3.75 mg/kg/injection, schedule: Q04DX003 (ip), vehicle: saline with Tween-80): 100 % of control | T/C (dose: 5.0 mg/kg/injection, schedule: Q04DX003 (ip), vehicle: saline with Tween-80): 104 % of control | T/C [15]: 104 % of control

C[C@@H]1C[C@@]2(C)[C@@H](CC[C@@H]3[C@@H]2CC[C@]2(C)[C@@H](OC4CCCCO4)CC[C@@H]32)CC1=O (stereo partly drawn)
T/C [1]: 88 % of control | T/C [2]: 92 % of control | T/C (dose: 100.0 mg/kg/injection, schedule: Q01DX009 (ip), vehicle: Klucel (hydroxypropylcellulose) (HPC)): 88 % of control and 100 % of control | T/C [3]: 86 % of control and 91 % of control | T/C [4]: 87 % of control and 100 % of control | T/C [5]: 87 % of control and 95 % of control | T/C [6]: 105 % of control | T/C [7]: 90 % of control and 91 % of control

NCCCOc1ccc([N+](=O)[O-])cc1Cl
T/C (dose: 25.0 mg/kg/injection, schedule: Q01DX009 (ip), vehicle: saline): 105 % of control | T/C [13]: 105 % of control | T/C [14]: 104 % of control

COC(=O)C1CN(c2ccccc2)N=C1C(C)=O (stereo not drawn)
T/C [8]: 89 % of control | T/C [9]: 86 % of control

CC(C)C(N)C(=O)NC(CO)C(=O)O (stereo not drawn) (H-Val-Ser-OH; configuration not given here)
T/C (dose: 50.0 mg/kg/injection, schedule: Q01DX005 (ip), vehicle: saline): 99 % of control | T/C (dose: 100.0 mg/kg/injection, schedule: Q01DX005 (ip), vehicle: saline): 106 % of control | T/C (dose: 200.0 mg/kg/injection, schedule: Q01DX005 (ip), vehicle: saline): 92 % of control

CCN(C)c1ccc(/C=C/c2ccnc3ccccc23)cc1
T/C [10]: 115 % of control | T/C [11]: 91 % of control | T/C [12]: 99 % of control

COC(=O)CCCc1c[nH]c2ccccc12
T/C (dose: 100.0 mg/kg/injection, schedule: Q01DX009 (ip), vehicle: other): 103 % of control | T/C (dose: 200.0 mg/kg/injection, schedule: Q01DX009 (ip), vehicle: other): 94 % of control | T/C (dose: 400.0 mg/kg/injection, schedule: Q01DX009 (ip), vehicle: other): 86 % of control

CC1CN=C(c2ccc(NC(=O)c3ccc(C(=O)Nc4ccc(C5=NCC(C)N5)cc4)c(N)c3)cc2)N1 (stereo not drawn)
T/C (dose: 6.7 mg/kg/injection, schedule: Q04DX003 (ip), vehicle: saline with Tween-80): 150 % of control | T/C [15]: 163 % of control | T/C (dose: 15.0 mg/kg/injection, schedule: Q04DX003 (ip), vehicle: saline with Tween-80): 172 % of control and 177 % of control
